What was measured:
[1] = molecular target: T1, MmEsco2^368–592 (Mus musculus, UniProt Q8CIB9); assay: X-ray crystallography, […] Å (zinc SAD); type: binding; conditions: natively bound (co-purified) CoA; active-site groove; pH 8 crystallisation
T1 construct: gene Esco2; residues 368-592 (C2H2 zinc finger and acetyltransferase domain), C-terminal His-tag, Hi5 insect cells
T1 sequence (Q8CIB9 368-592): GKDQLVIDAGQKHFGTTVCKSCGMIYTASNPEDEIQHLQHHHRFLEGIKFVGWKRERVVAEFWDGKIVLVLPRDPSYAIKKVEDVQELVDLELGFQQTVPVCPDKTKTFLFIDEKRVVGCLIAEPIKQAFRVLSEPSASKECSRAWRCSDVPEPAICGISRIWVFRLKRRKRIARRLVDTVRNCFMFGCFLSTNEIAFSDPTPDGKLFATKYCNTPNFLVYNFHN

[2] = molecular target: T2, HsESCO1 (Homo sapiens, UniProt Q5FWF5); assay: SMC3 acetylation time course, anti-acetyl-Smc3 immunoblot; type: biochemical; conditions: 10 µM AcCoA; acceptor human trimeric or tetrameric cohesin (SMC3 K105/K106); ATP, plasmid DNA, 1 mM MgCl2, pH 7.5, 37 °C
T2 construct: gene ESCO1; full-length, N-terminal His-tag, Sf9 insect cells
T2 sequence (Q5FWF5 1-840): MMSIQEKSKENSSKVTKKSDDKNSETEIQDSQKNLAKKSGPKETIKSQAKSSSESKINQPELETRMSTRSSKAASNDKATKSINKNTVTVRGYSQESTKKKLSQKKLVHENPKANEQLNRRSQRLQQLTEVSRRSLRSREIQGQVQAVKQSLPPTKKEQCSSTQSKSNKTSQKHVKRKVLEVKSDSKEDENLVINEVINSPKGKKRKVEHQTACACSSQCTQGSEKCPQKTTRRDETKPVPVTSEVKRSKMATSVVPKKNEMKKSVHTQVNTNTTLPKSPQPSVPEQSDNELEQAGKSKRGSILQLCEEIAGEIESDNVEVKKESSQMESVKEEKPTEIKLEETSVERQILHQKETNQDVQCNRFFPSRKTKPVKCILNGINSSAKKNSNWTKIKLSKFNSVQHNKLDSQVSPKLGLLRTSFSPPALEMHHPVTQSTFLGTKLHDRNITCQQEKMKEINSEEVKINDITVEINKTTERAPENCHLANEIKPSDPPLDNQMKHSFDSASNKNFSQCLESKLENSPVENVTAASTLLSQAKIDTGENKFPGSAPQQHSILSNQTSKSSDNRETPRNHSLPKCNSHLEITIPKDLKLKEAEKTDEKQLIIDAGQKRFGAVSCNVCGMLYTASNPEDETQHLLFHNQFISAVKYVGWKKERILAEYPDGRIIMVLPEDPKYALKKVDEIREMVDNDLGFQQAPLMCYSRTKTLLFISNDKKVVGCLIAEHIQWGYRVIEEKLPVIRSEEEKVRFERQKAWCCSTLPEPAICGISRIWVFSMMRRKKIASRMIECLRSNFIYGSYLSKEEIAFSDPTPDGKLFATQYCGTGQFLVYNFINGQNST

CC(C)(COP(=O)(O)OP(=O)(O)OC[C@H]1O[C@@H](n2cnc3c(N)ncnc32)[C@H](O)[C@@H]1OP(=O)(O)O)[C@@H](O)C(=O)NCCC(=O)NCCS [CoA]
X-ray crystallography, 1.8 Å (zinc SAD) [1]: The CoA cofactor is natively present in a complex with MmEsco2 in a groove

CC(=O)SCCNC(=O)CCNC(=O)[C@H](O)C(C)(C)COP(=O)(O)OP(=O)(O)OC[C@H]1O[C@@H](n2cnc3c(N)ncnc32)[C@H](O)[C@@H]1OP(=O)(O)O [AcCoA]
SMC3 acetylation time course, anti-acetyl-Smc3 immunoblot [2]: The purified tetrameric cohesin complex was incubated with HsESCO1 and AcCoA

— publication PMC7300003, “Alternative catalytic residues in the active site of Esco acetyltransferases” (Scientific Reports, 2020)
